# According to US9353091B2 (priority 2009, dated 2016):
# Legend:
# [1] = tested on: genotype 1b-Con1 subgenomic replicon cell line; experiment: HCV Polymerase Replicon Assay (genotype 1b-Con1, luciferase reporter); type: cell-based; details: Hepatitis C virus, 72 h, 1b-Con1 replicon, three days
# [2] = tested on: genotype 1a-H77 subgenomic replicon cell line; experiment: HCV Polymerase Replicon Assay (genotype 1a-H77, luciferase reporter); type: cell-based; details: Hepatitis C virus, 72 h, 1a-H77 replicon, three days
# [3] = biological target: T1, HCV polymerase 1A (Δ21 NS5B) (Hepatitis C virus genotype 1a, UniProt P27958); experiment: HCV Polymerase Inhibition Assay (1a); type: biochemical
# T1 construct: 20 to 50 nM Δ21 NS5B
# T1 sequence (P27958 2421-2990, stated change not applied): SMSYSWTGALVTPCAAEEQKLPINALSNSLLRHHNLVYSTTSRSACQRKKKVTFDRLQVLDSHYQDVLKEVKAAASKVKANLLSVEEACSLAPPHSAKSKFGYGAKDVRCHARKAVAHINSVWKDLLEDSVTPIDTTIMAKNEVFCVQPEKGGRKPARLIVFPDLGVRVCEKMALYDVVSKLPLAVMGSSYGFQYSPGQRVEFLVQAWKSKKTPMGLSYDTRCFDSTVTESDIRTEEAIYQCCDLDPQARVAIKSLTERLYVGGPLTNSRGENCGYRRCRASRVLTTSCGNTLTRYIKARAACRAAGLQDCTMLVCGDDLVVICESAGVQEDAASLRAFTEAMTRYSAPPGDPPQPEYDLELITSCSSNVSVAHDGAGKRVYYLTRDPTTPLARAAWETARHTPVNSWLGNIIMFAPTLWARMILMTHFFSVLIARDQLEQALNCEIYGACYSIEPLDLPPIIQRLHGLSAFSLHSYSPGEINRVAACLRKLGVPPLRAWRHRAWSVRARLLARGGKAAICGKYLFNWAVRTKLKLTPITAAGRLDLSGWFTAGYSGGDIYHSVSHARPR
# Method: (§1) Reaction volume was 50 μL. The reaction was terminated by the addition of 1 volume of 4 mM spermine in 10 mM Tris-Cl pH 8.0, 1 mM EDTA. After incubation for at least 15 minutes at room temperature, the precipitated RNA was captured by filtering through a GF/B filter (Millipore) in a 96 well format. The filter plate was washed three times with 200 μL, each of 2 mM spermine, 10 mM Tris-Cl pH 8.0, 1 mM EDTA, and 2 times with ethanol. After air-drying, 30 μL, of Microscint 20 scintillation cocktail (Packard) was added to each well, and the retained cpm were determined by scintillation counting. […] Retained cpm were plotted vs. inhibitor concentration and fit to equation 1 using non-linear regression (ref. 1) to obtain the IC50 values: Retained cpm=A[sqrt{(IC50+It−Et)^2+4*IC50*Et}−(IC50+It−Et)]
# (§2) Ref. Morrison, J. F. and S. R. Stone. 1985. Approaches to the study and analysis of the inhibition of enzymes by slow- and tight-binding inhibitors. Comments Mol. Cell. Biophys. 2: 347-368.
# (§3) The sequence of the template RNA used was: 5′-[…] […] […] […] […] […] […] […] […] […] […] […] […] […] […] […] […]-3′ (SEQ ID NO: 1)
# [4] = biological target: T2, HCV polymerase 1B (Δ21 NS5B) (Hepatitis C virus genotype 1b, UniProt P26663); experiment: HCV Polymerase Inhibition Assay (1b); type: biochemical
# T2 construct: 20 to 50 nM Δ21 NS5B
# T2 sequence (P26663 2420-2989, stated change not applied): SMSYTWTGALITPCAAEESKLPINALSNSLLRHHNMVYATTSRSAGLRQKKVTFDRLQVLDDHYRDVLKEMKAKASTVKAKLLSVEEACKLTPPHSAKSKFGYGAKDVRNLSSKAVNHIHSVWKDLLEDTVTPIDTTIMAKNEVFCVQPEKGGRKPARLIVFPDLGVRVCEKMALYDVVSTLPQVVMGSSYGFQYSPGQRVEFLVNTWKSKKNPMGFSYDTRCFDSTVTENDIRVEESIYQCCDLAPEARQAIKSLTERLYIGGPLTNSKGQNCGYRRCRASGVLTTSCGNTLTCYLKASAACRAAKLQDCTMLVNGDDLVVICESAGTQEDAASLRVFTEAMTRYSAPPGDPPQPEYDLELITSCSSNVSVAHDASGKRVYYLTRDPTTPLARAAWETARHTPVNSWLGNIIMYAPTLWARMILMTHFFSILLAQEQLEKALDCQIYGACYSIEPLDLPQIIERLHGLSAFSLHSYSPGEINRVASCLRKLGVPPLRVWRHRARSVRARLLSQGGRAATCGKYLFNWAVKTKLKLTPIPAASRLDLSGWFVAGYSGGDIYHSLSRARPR
# Method: as §1, §2, §3
smiles,measurement,setting,value
"CCc1c(-c2ccc3cc(NS(C)(=O)=O)ccc3c2)cc(-c2c[nH]c(=O)[nH]c2=O)cc1C(C)(C)C [compound 36, N-(6-(3-tert-butyl-5-(2,4-dioxo-1,2,3,4-tetrahydropyrimidin-5-yl)-2-ethylphenyl)naphthalen-2-yl)methanesulfonamide]",EC50,[1],100 to 1000 nM
same,EC50,[2],100 to 1000 nM
same,IC50,[3],10 to 100 nM
same,IC50,[4],10 to 100 nM
"COc1c(-c2ccc3c(c2)CCC3=O)cc(-c2c[nH]c(=O)[nH]c2=O)cc1C(C)(C)C [compound 12, 5-(3-tert-butyl-4-methoxy-5-(1-oxo-2,3-dihydro-1H-inden-5-yl)phenyl)pyrimidine-2,4(1H,3H)-dione]",EC50,[1],100 to 1000 nM
same,EC50,[2],100 to 1000 nM
same,IC50,[3],10 to 100 nM
same,IC50,[4],10 to 100 nM
"CCNC(=O)Nc1cc(-c2ccc3cc(NS(C)(=O)=O)ccc3c2)c(OC)c(C(C)(C)C)c1 [compound 22, N-(6-(3-tert-butyl-5-(3-ethylureido)-2-methoxyphenyl)naphthalen-2-yl)methanesulfonamide]",EC50,[1],100 to 1000 nM
same,EC50,[2],100 to 1000 nM
same,IC50,[3],100 to 1000 nM
same,IC50,[4],100 to 1000 nM
"COc1c(-c2ccc3cc(NS(C)(=O)=O)ccc3c2)cc(N2CCOC2=O)cc1C(C)(C)C [compound 25, N-(6-(3-tert-butyl-2-methoxy-5-(2-oxooxazolidin-3-yl)phenyl)naphthalen-2-yl)methanesulfonamide]",EC50,[1],> 1000 nM
same,EC50,[2],> 1000 nM
same,IC50,[3],100 to 1000 nM
same,IC50,[4],100 to 1000 nM
"COc1c(-c2ccc3cc(NS(C)(=O)=O)ccc3c2)cc(-c2cn(C)c(=O)n(C)c2=O)cc1C(C)(C)C [compound 8, N-(6-(3-tert-butyl-5-(1,3-dimethyl-2,4-dioxo-1,2,3,4-tetrahydropyrimidin-5-yl)-2-methoxyphenyl)naphthalen-2-yl)methanesulfonamide]",EC50,[1],10 to 100 nM
same,EC50,[2],100 to 1000 nM
same,IC50,[3],100 to 1000 nM
same,IC50,[4],100 to 1000 nM
"COc1c(-c2ccc3cc(NS(C)(=O)=O)ccc3c2)cc(N2CCCNC2=O)cc1C(C)(C)C [compound 26, N-(6-(3-tert-butyl-2-methoxy-5-(2-oxotetrahydropyrimidin-1(2H)-yl)phenyl)naphthalen-2-yl)methanesulfonamide]",EC50,[1],≤ 10 nM
same,EC50,[2],10 to 100 nM
same,IC50,[3],10 to 100 nM
same,IC50,[4],10 to 100 nM
"COc1c(-c2ccc3cc(NS(C)(=O)=O)ccc3c2)cc(-c2c[nH]c(=O)[nH]c2=O)cc1-c1ccco1 [compound 40, N-(6-(5-(2,4-dioxo-1,2,3,4-tetrahydropyrimidin-5-yl)-3-(furan-2-yl)-2-methoxyphenyl)naphthalen-2-yl)methanesulfonamide]",EC50,[1],10 to 100 nM
same,EC50,[2],100 to 1000 nM
same,IC50,[3],< 10 nM
same,IC50,[4],< 10 nM
"COc1c(-c2ccc3cc(NS(C)(=O)=O)ccc3c2)cc(-c2c[nH]c(=O)[nH]c2=O)cc1-c1ccc(C)o1 [compound 42, N-(6-(5-(2,4-dioxo-1,2,3,4-tetrahydropyrimidin-5-yl)-2-methoxy-3-(5-methylfuran-2-yl)phenyl)naphthalen-2-yl)methanesulfonamide]",EC50,[1],≤ 10 nM
same,EC50,[2],10 to 100 nM
same,IC50,[3],< 10 nM
same,IC50,[4],10 to 100 nM
"COc1c(-c2ccc3c(c2)CC=C3CNS(C)(=O)=O)cc(-c2c[nH]c(=O)[nH]c2=O)cc1-c1ccc(C)o1 [compound 44, N-((6-(5-(2,4-dioxo-1,2,3,4-tetrahydropyrimidin-5-yl)-2-methoxy-3-(5-methylfuran-2-yl)phenyl)-1H-inden-3-yl)methyl)methanesulfonamide]",EC50,[1],10 to 100 nM
same,EC50,[2],100 to 1000 nM
same,IC50,[3],10 to 100 nM
same,IC50,[4],10 to 100 nM
"COc1c(-c2ccc3cc(NS(C)(=O)=O)ccc3c2)cc(-c2c[nH]c(=O)[nH]c2=O)cc1-c1cnn(C)c1 [compound 41, N-(6-(5-(2,4-dioxo-1,2,3,4-tetrahydropyrimidin-5-yl)-2-methoxy-3-(1-methyl-1H-pyrazol-4-yl)phenyl)naphthalen-2-yl)methanesulfonamide]",EC50,[1],> 1000 nM
same,EC50,[2],> 1000 nM
same,IC50,[3],100 to 1000 nM
same,IC50,[4],100 to 1000 nM
"COc1c(-c2ccc3cc(NS(C)(=O)=O)ccc3c2)cc(-c2cn(C)c(=O)[nH]c2=O)cc1C(C)(C)C [compound 7, N-(6-(3-tert-butyl-2-methoxy-5-(1-methyl-2,4-dioxo-1,2,3,4-tetrahydropyrimidin-5-yl)phenyl)naphthalen-2-yl)methanesulfonamide]",EC50,[1],≤ 10 nM
same,EC50,[2],10 to 100 nM
same,IC50,[3],< 10 nM
same,IC50,[4],10 to 100 nM
"COc1c(-c2ccc3cc(NS(C)(=O)=O)ccc3c2)cc(-c2c[nH]c(=O)[nH]c2=O)cc1C(F)(F)F [compound 49, N-(6-(5-(2,4-dioxo-1,2,3,4-tetrahydropyrimidin-5-yl)-2-methoxy-3-(trifluoromethyl)phenyl)naphthalen-2-yl)methanesulfonamide]",EC50,[1],≤ 10 nM
same,EC50,[2],10 to 100 nM
same,IC50,[3],< 10 nM
same,IC50,[4],10 to 100 nM
"COc1c(-c2ccc3cc(NS(C)(=O)=O)ccc3c2)cc(N2CCCC2=O)cc1C(C)(C)C [compound 29, N-(6-(3-tert-butyl-2-methoxy-5-(2-oxopyrrolidin-1-yl)phenyl)naphthalen-2-yl)methanesulfonamide]",EC50,[1],10 to 100 nM
same,EC50,[2],100 to 1000 nM
same,IC50,[3],10 to 100 nM
same,IC50,[4],10 to 100 nM
"C=Cc1c(-c2ccc3cc(NS(C)(=O)=O)ccc3c2)cc(-c2c[nH]c(=O)[nH]c2=O)cc1C(C)(C)C [compound 35, N-(6-(3-tert-butyl-5-(2,4-dioxo-1,2,3,4-tetrahydropyrimidin-5-yl)-2-vinylphenyl)naphthalen-2-yl)methanesulfonamide]",EC50,[1],≤ 10 nM
same,EC50,[2],10 to 100 nM
same,IC50,[3],< 10 nM
same,IC50,[4],< 10 nM
"COc1c(-c2ccc3cc(NS(C)(=O)=O)ccc3c2)cc(-c2c[nH]c(=O)[nH]c2=O)cc1C(C)(C)C [compound 28, N-(6-(3-tert-butyl-5-(2,4-dioxo-1,2,3,4-tetrahydropyrimidin-5-yl)-2-methoxyphenyl)naphthalen-2-yl)methanesulfonamide]",EC50,[1],≤ 10 nM
same,EC50,[2],≤ 10 nM
same,IC50,[3],< 10 nM
same,IC50,[4],10 to 100 nM
"COc1c(-c2ccc3cc(NS(C)(=O)=O)ccc3c2)cc(NC(=O)CCNC(=O)OC(C)(C)C)cc1C(C)(C)C [compound 23, tert-butyl 3-(3-tert-butyl-4-methoxy-5-(6-(methylsulfonamido)naphthalen-2-yl)phenylamino)-3-oxopropylcarbamate]",EC50,[1],> 1000 nM
same,EC50,[2],> 1000 nM
same,IC50,[3],100 to 1000 nM
same,IC50,[4],> 1000 nM
"COc1c(-c2ccc3cc(NS(C)(=O)=O)ccc3c2)cc(N2CCNC2=O)cc1C(C)(C)C [compound 27, N-(6-(3-tert-butyl-2-methoxy-5-(2-oxoimidazolidin-1-yl)phenyl)naphthalen-2-yl)methanesulfonamide]",EC50,[1],10 to 100 nM
same,EC50,[2],100 to 1000 nM
same,IC50,[3],10 to 100 nM
same,IC50,[4],10 to 100 nM
